In PubChem BioAssay AID2060889 (Molecular Pharmacology Branch, DTP, NCI, 2025):
One block for each compound: values may come before it.

Tested on: LG0567-F671-PDC complex spheroids viability
Assay: Anticancer human tumor LG0567-F671-PDC patient-derived lung adenocarcinoma cell line growth inhibition [RAS]
Settings: for viability, T/C: stronger effect = lower value
From the text: RAS pathway inhibitors in Combinations in Complex Spheroids
A high-throughput screen of multi-cell type tumor spheroids was designed to identify active combinations of RAS pathway inhibitors and targeted small molecules. Complex spheroids include a stromal component modeled by human endothelial cells (HUVEC) and fibroblasts modeled by human mesenchymal stem cells (MSCs). The concentration ranges selected for each drug and investigational agent were based upon clinically achievable concentrations if the clinical Cmax of the agent was known.
Compounds. The drugs and investigational agents: abemaciclib (NSC768073), cobimetinib (NSC768068), divarasib (GDC6063, NSC841802), docetaxel (NSC628503), GDC-1971 (RLY-1971, NSC841576), gemcitabine (NSC613327), inavolisib (NSC800729), ipatasertib (NSC767898), KB-0742 (NSC834161), MRTX-1133 (NSC836407), osimertinib (NSC779217), RMC-4630 (NSC839698), RMC-6236 (NSC851965), RMC-6291 (NSC852671), Ro-3306 (NSC812927), sapanisertib (NSC764658), SN-38 (NSC673596), staurosporine (NSC755774), SY5609 (NSC837396), and tovorafenib (DAY101, NSC766906), were obtained from the National Cancer Institute (NCI) Developmental Therapeutics Program Chemical Repository. The FDA-approved anticancer drug set is available from the NCI Developmental Therapeutics Program. […] The stock solutions were prepared in dimethyl sulfoxide (DMSO, Sigma-Aldrich, St. Louis, MO, cat. D2650) at 800-fold the tested concentration and stored at -70 degrees C prior to their use. All drugs and investigational agents were tested over a range starting from a high concentration at or near the clinical Cmax and decreasing in half-log increments. If the clinical Cmax for an agent had not been determined, the highest concentration tested was 10 microM.
Cell Culture. All cells were maintained in an incubator at 37 degrees C and 5% CO2 with 95% humidity. The PDC lines were cultured according to standard operating procedures established by the NCI PDMR. All PDCs were thawed and cultured in Matrigel-coated flasks prepared with a working solution of 1X Ham's F-12 nutrient mix, without supplementation (Invitrogen, Waltham, MA, cat. 11765054), 100 U/mL penicillin-streptomycin (Invitrogen, cat. 15140122), and 2.5% Matrigel (Corning Inc., Corning, NY, cat. 354248) for the first three passages. The 362531-283-R-J2-PDC and 782815-120-R-J1-PDC lines were cultured in 6C/Colon 1B media, which includes advanced DMEM/F-12 (Thermo Fisher Scientific, cat. 12634028), 10 mM HEPES (Thermo Fisher Scientific, cat. 15630080), 1X GlutaMAX supplement (Thermo Fisher Scientific, cat. 35050061), 0.1 mg/mL primocin (InvivoGen, San Diego, CA, cat. ant-pm-2), 10% defined fetal bovine serum, heat inactivated (HyClone Laboratories Inc., Logan, UT, cat. SH30070.03HI), 50% L-WRN conditioned media (ATCC, cat. CRL-3276), 1.25 mM N-Acetyl-L-cysteine (Sigma-Aldrich, cat. A9165), 10 mM nicotinamide (Sigma-Aldrich, cat. N0636), 1X B-27 supplement (Thermo Fisher Scientific, cat. 17504044), 1X N-2 supplement (Thermo Fisher Scientific, cat. 17502048), 50 ng/mL human EGF (Thermo Fisher Scientific, cat. PHG0311), and 10 microM Y-27632 dihydrochloride (Tocris Bioscience, cat. 1254). The K12877-001-R-J1-PDC line was cultured in 6I media, which includes all 6C/Colon 1B media plus 10 ng/mL human FGF-10 (PeproTech, cat. 100-26), 1 ng/mL human FGF-2 (PeproTech, cat. 100-18B), 1 µM prostaglandin E2 (Tocris Bioscience, cat. 2296), […] hydrocortisone (Sigma-Aldrich, cat. H4001), and […] bovine insulin (Sigma-Aldrich, cat. I6634). The K86415-001-R-J1-PDC line was cultured in 6D media, which includes all 6C/Colon 1B media components minus the L-WRN conditioned media. The 485176-168-R4-J1-PDC was cultured in PANC media, which includes all 6C/Colon 1B media plus 100 ng/mL human FGF-10 (PeproTech, cat. 100-26), 500 nM SB-431542 (Selleckchem, cat. S1067), and 10 nM gastrin (Tocris Bioscience, cat. 3006). […]
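Also: spheroids exposed to compound for seven days before readout.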
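For IC50 in this document: luminescence signal used as a proxy for viable cells.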

IC50 (curve of compound): > 1000 nM
SMILES: Nc1ccn(C2OC(CO)C(O)C2(F)F)c(=O)n1 (centres undefined)
viability, T/C (compound 0.00316 µM): 93.3% [middle of 4 runs]
viability, T/C (compound 0.01 µM): 81% [middle of 4 runs]
viability, T/C (compound 0.0316 µM): 79.1% [middle of 4 runs]
viability, T/C (compound 0.1 µM): 71.7% [middle of 4 runs]
viability, T/C (compound 0.316 µM): 69.5% [middle of 4 runs]
viability, T/C (compound 1 µM): 61.7% [middle of 4 runs]

IC50 (curve of first compound, second compound 0.000949 µM): < 0.316 nM
IC50 (curve of first compound, second compound 0.003 µM): < 0.316 nM
IC50 (curve of first compound, second compound 0.00949 µM): < 0.316 nM
IC50 (curve of first compound, second compound 0.03 µM): < 0.316 nM
IC50 (curve of first compound, second compound 0.0949 µM): < 0.316 nM
IC50 (curve of first compound, second compound 0.3 µM): < 0.316 nM
SMILES: CC(C)n1nc(-c2ccc3oc(N)nc3c2)c2c(N)ncnc21 + CCn1c(-c2cccnc2C(C)OC)c2c3cc(ccc31)N1CCOC(CC(NC(=O)C(C(C)C)N(C)C(=O)C3(F)CCN(C(=O)C#CC(C)(C)N(C)C)CC3)C(=O)N3CCCC(N3)C(=O)OCC(C)(C)C2)C1
viability, T/C (second compound 0.000949 µM, first compound 0.000316 µM): 14.9%
viability, T/C (second compound 0.000949 µM, first compound 0.001 µM): 14.4%
viability, T/C (second compound 0.000949 µM, first compound 0.00316 µM): 12.2%
viability, T/C (second compound 0.000949 µM, first compound 0.01 µM): 9.49%
viability, T/C (second compound 0.000949 µM, first compound 0.0316 µM): 8.53%
viability, T/C (second compound 0.000949 µM, first compound 0.1 µM): 14.7%
viability, T/C (second compound 0.003 µM, first compound 0.000316 µM): 15.6%
viability, T/C (second compound 0.003 µM, first compound 0.001 µM): 12.4%
viability, T/C (second compound 0.003 µM, first compound 0.00316 µM): 12.5%
viability, T/C (second compound 0.003 µM, first compound 0.01 µM): 10.2%
viability, T/C (second compound 0.003 µM, first compound 0.0316 µM): 8.31%
viability, T/C (second compound 0.003 µM, first compound 0.1 µM): 13.6%
viability, T/C (second compound 0.00949 µM, first compound 0.000316 µM): 13.3%
viability, T/C (second compound 0.00949 µM, first compound 0.001 µM): 13.2%
viability, T/C (second compound 0.00949 µM, first compound 0.00316 µM): 13.3%
viability, T/C (second compound 0.00949 µM, first compound 0.01 µM): 10.2%
viability, T/C (second compound 0.00949 µM, first compound 0.0316 µM): 7.68%
viability, T/C (second compound 0.00949 µM, first compound 0.1 µM): 12.6%
viability, T/C (second compound 0.03 µM, first compound 0.000316 µM): 12%
viability, T/C (second compound 0.03 µM, first compound 0.001 µM): 14%
viability, T/C (second compound 0.03 µM, first compound 0.00316 µM): 11%
viability, T/C (second compound 0.03 µM, first compound 0.01 µM): 9.46%
viability, T/C (second compound 0.03 µM, first compound 0.0316 µM): 7.2%
viability, T/C (second compound 0.03 µM, first compound 0.1 µM): 11.5%
viability, T/C (second compound 0.0949 µM, first compound 0.000316 µM): 11.1%
viability, T/C (second compound 0.0949 µM, first compound 0.001 µM): 10.9%
viability, T/C (second compound 0.0949 µM, first compound 0.00316 µM): 9.2%
viability, T/C (second compound 0.0949 µM, first compound 0.01 µM): 7.52%
viability, T/C (second compound 0.0949 µM, first compound 0.0316 µM): 5.8%
viability, T/C (second compound 0.0949 µM, first compound 0.1 µM): 10.4%
viability, T/C (second compound 0.3 µM, first compound 0.000316 µM): 9.46%
viability, T/C (second compound 0.3 µM, first compound 0.001 µM): 8.59%
viability, T/C (second compound 0.3 µM, first compound 0.00316 µM): 8.57%
viability, T/C (second compound 0.3 µM, first compound 0.01 µM): 7.61%
viability, T/C (second compound 0.3 µM, first compound 0.0316 µM): 4.68%
viability, T/C (second compound 0.3 µM, first compound 0.1 µM): 8.47%
